Measurements from patent US12121530B2, “Composition and methods for treating articulating joint disorders with nucleoside reverse transcriptase inhibitors” (RHODE ISLAND HOSPITAL, priority 2018, dated 2024).

Tests used:
HIV patients = assay: summary data of NRTI on OA in HIV patients; assay type: in vivo, human; settings: for strict OA (ICD-9-CM 715) / expanded OA (ICD-9-CM 715, 716 or 719): HIV patients; for strict OA (ICD-9-CM 715): older than 50, dosage dependent, both male and female
Text: Medical provider diagnoses of ICD-9-CM 715 [osteoarthrosis and allied disorders] include the following definitions: 1) strict=ICD-9-CM 715; 2) expanded=ICD-9-CM 715, 716 [other and unspecified arthropathies], OR 719 [other and unspecified disorders of joint]); and 3) probable=strict OR expanded+respondent-reported prior diagnosis of OA or other arthritis excluding rheumatoid arthritis (RA).

Line-1 = assay: siRNA against Line-1 in mouse primary chondrocytes, RT-qPCR; assay type: cell-based; settings: for Line-1 expression: siRNA screening, versus scramble siRNA
Protocol: Cells were seeded onto desired size plates to reach 70-90% confluence and transfected with miR-365 mimic or miRNA mimic negative control or miR-365 inhibitor or inhibitor negative control (Dharmacon®, Lafayette, Colo., USA). Lipofectamine 3000 (Invitrogen®, Waltham, Mass., USA) was used as transfection reagents. Medium is changed 24 hrs after transfection. 48 hrs post transfection, cells were lysated in either QIAzol for RNA purification and real-time PCR analysis or ice-cold lysis buffer containing protease inhibitor and phosphatase inhibitor for western blot analysis. MiR-365 mimic, miRNA mimic negative control, miR-365 inhibitor and inhibitor negative control were typically used at a final concentration of 25 nM unless otherwise stated.
Both miRNA and mRNA were extracted using miRNeasy Mini Kit (Qiagen®, Germantown, Md., USA) and reversely transcribed using miScriptIIRT Kit (Qiagen®, Germantown, Md., USA) according to manufacturer's instruction. qPCR was performed using SYBR Green PCR master mix (Qiagen®, Germantown, Md., USA) on a Bio-Rad CFX96 real-time PCR detection system (Bio-Rad®, Hercules, Calif., USA). Amplification conditions are as follows: 95° C. for 10 min, 40 cycles of 95° C. for 10″, 55° C. for 30″, and 72° C. for 30″. 18S ribosomal or GAPDH RNA was used as an internal control gene to normalize the mRNAs level. The ubiquitously expressed snRNA U6 was used as an endogenous control for miRNAs level. Primers were synthesized by Integrated DNA Technologies (http://www.idtdna.com). The primers for miR-365 were purchased from Qiagen. Fold changes of mRNA and miRNAs were calculated by the 2^^(ΔΔCt) method and normalized to 18S/GAPDH or U6 snRNA, respectively.

[1] = mouse PC transfected with miR-365 mimic

Row | Molecule | strict OA (ICD-9-CM 715) (HIV patients) | expanded OA (ICD-9-CM 715, 716 or 719) (HIV patients) | Line-1 expression (Line-1) | other results
1 | Nc1nc(NC2CC2)c2ncn([C@H]3C=C[C@@H](CO)C3)c2n1 [ABC, abacavir] | inhibiting |  |  | 
2 | Cc1cn([C@H]2C=C[C@@H](CO)O2)c(=O)[nH]c1=O [D4T, 2′,3′-didehydro-2′,3′-dideoxythymidine] | inhibiting | inhibiting |  | extent of inhibition of strict OA and expanded OA (HIV patients; among NRTIs): highest extent of inhibition
3 | O=c1nc[nH]c2c1ncn2[C@H]1CC[C@@H](CO)O1 [DDL, 2′,3′-dideoxyinosine] | inhibiting | inhibiting |  | toxicity (HIV patients; group of less than 40 years old): No toxicity
4 | Cc1cn([C@H]2C[C@H](N=[N+]=[N-])[C@@H](CO)O2)c(=O)[nH]c1=O [ZDV, Zidovudine] | inhibiting | partially inhibiting |  | 
5 | siLine-1C: siRNA against Line-1, AAGCCACTATTACTCTGATAC (SEQ ID NO: 95) (AAGCCACTATTACTCTGATAC; listed as DNA, chemistry not given here) |  |  | significantly suppressed | 
6 | siLine-1D: siRNA against Line-1, AAGGTCAAATCTAAGTGGATC (SEQ ID NO: 96) (AAGGTCAAATCTAAGTGGATC; listed as DNA, chemistry not given here) |  |  | significantly suppressed | miR-365-elicited gene expression changes (L1, Adamts5, Mmp3, Ihh, Col2a1, Acan) (Line-1; co-transfected with miR-365 (FIG. 1D-1I)): abolished; miR-365 led induction of Ihh (Line-1; [1]): successfully rescued; miR-365 led induction of Line-1 (Line-1; [1]): successfully rescued
7 | siLine-1E: siRNA against Line-1, AAGTTTCTGCAAGGCAAAAGA (SEQ ID NO: 97) (AAGTTTCTGCAAGGCAAAAGA; listed as DNA, chemistry not given here) |  |  | significantly suppressed | 
